Common to all, as to assay: relative viability (nuclei count vs DMSO), 5 days (fraction); higher = more cells survive
Compound in experiment [1]: C(C(=O)C(=O)O)Br [Bromopyruvate] + Cc1nc(NC(=O)N2CCC[C@H]2C(N)=O)sc1-c1ccnc(C(C)(C)C(F)(F)F)c1 [Alpelisib] (partner 2 µM)
The method in brief: (§1)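 Values are medians from duplicate plates. Each reflects relative viability, defined as the nuclei count of treated wells over that of vehicle wells. Lung cancer cell lines in 1536-well plates were pin-tool dosed one day after seeding with one drug alone or with a fixed anchor-drug dose plus five library-drug doses (not always all listed) in √10 steps, then fixed, stained and imaged at 4× after 5 days.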

Compound in experiment [2]: C(C(=O)C(=O)O)Br [Bromopyruvate] + Nc1ncn([C@H]2C[C@H](O)[C@@H](CO)O2)c(=O)n1 [Decitabine] (partner 2 µM)
A digest of the protocol:
as §1

Compound in experiment [3]: C(C(=O)C(=O)O)Br [Bromopyruvate] + O=C(CCCCCCC(=O)Nc1ccccc1)NO [Vorinostat] (partner 1 µM)
The method in brief: as §1

Compound in the experiment “Bicalutamide + Lapatinib”: CC(O)(CS(=O)(=O)c1ccc(F)cc1)C(=O)Nc1ccc(C#N)c(C(F)(F)F)c1 [Bicalutamide] + CS(=O)(=O)CCNCc1ccc(-c2ccc3ncnc(Nc4ccc(OCc5cccc(F)c5)c(Cl)c4)c3c2)o1 [Lapatinib] (partner 2 µM)
The method in brief: as §1

Regarding UMC-11, the relative viability in experiment [1] (first compound 1 µM) turned out to be 1.12; in experiment [1] (first compound 3.162 µM) it was 1.01; in experiment [1] (first compound 10 µM), 0.983; in experiment [1] (first compound 31.62 µM) it was 0.997; in experiment [1] (first compound 100 µM) it was 1.01; in experiment [2] (first compound 1 µM) it was 0.596. Moreover, the relative viability worked out at 0.574 in experiment [2] (first compound 3.162 µM); 0.815 in experiment [2] (first compound 10 µM); 0.617 in experiment [2] (first compound 31.62 µM); 0.708 in experiment [2] (first compound 100 µM); 0.479 in experiment [3] (first compound 1 µM); 0.357 in experiment [3] (first compound 3.162 µM). Besides, the relative viability in experiment [3] (first compound 10 µM) is 0.289; in experiment [3] (first compound 31.62 µM), 0.274; in experiment [3] (first compound 100 µM), 0.2; with Bicalutamide + Lapatinib (first compound 0.08 µM), 0.951; with Bicalutamide + Lapatinib (first compound 0.253 µM), 0.723; with Bicalutamide + Lapatinib (first compound 0.8 µM), 1.12. Further, the relative viability with Bicalutamide + Lapatinib (first compound 2.53 µM) amounted to 0.899.

For the origin of these results see the supplement of paper PMC10307832.
